Data from patent US12077503B2, “Substituted cyclic amides and their use as herbicides” (FMC CORPORATION, priority 2015, dated 2024).

Experiments:
Type in all cases: in vivo
Kochia (Kochia scoparia) [1] = assay: Test A preemergence; conditions: Preemergence; for Plant response rating, Kochia: 125 g ai/ha, visual injury after approximately 10 d, 0 to 100 scale where 0 is no effect and 100 is complete control; for Kochia plant response rating (0 to 100 scale, 0 is no effect, 100 is complete control): 500 g ai/ha, visual injury approx. 10 d
Procedure, shortened: (§1)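 Visual injury, scored on a 0–100 scale relative to untreated controls, was recorded about 10 d after application. Treatments were a preemergence soil spray over planted seeds or a postemergence spray on plants at the one- to two-leaf stage, 2 to 10 cm tall, all in loam soil–sand blend in the greenhouse.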

[2] = tested on: barnyardgrass (Echinochloa crus-galli); assay: Test A preemergence; conditions: Preemergence; for Plant response rating, Barnyardgrass: 125 g ai/ha, visual injury after approximately 10 d, 0 to 100 scale where 0 is no effect and 100 is complete control; for Barnyardgrass plant response rating (0 to 100 scale, 0 is no effect, 100 is complete control): 500 g ai/ha, visual injury approx. 10 d
Procedure, shortened: as §1

[3] = tested on: giant foxtail (Setaria faberii); assay: Test A preemergence; conditions: Preemergence; for Plant response rating, Foxtail, Giant: 125 g ai/ha, visual injury after approximately 10 d, 0 to 100 scale where 0 is no effect and 100 is complete control; for Foxtail, Giant plant response rating (0 to 100 scale, 0 is no effect, 100 is complete control): 500 g ai/ha, visual injury approx. 10 d
Procedure, shortened: as §1

[4] = tested on: pigweed (Amaranthus retroflexus); assay: Test A preemergence; conditions: Preemergence; for Plant response rating, Pigweed: 125 g ai/ha, visual injury after approximately 10 d, 0 to 100 scale where 0 is no effect and 100 is complete control; for Pigweed plant response rating (0 to 100 scale, 0 is no effect, 100 is complete control): 500 g ai/ha, visual injury approx. 10 d
[5] = tested on: ragweed (common ragweed, Ambrosia elatior); assay: Test A preemergence; conditions: Preemergence; for Plant response rating, Ragweed: 125 g ai/ha, visual injury after approximately 10 d, 0 to 100 scale where 0 is no effect and 100 is complete control; for Ragweed plant response rating (0 to 100 scale, 0 is no effect, 100 is complete control): 500 g ai/ha, visual injury approx. 10 d
Procedure, shortened: as §1

[6] = tested on: ryegrass, Italian (Italian ryegrass, Lolium multiflorum); assay: Test A preemergence; conditions: Preemergence; for Plant response rating, Ryegrass, Italian: 125 g ai/ha, visual injury after approximately 10 d, 0 to 100 scale where 0 is no effect and 100 is complete control; for Ryegrass, Italian plant response rating (0 to 100 scale, 0 is no effect, 100 is complete control): 500 g ai/ha, visual injury approx. 10 d
Procedure, shortened: as §1

[7] = tested on: Galium (catchweed bedstraw, Galium aparine); assay: Test A postemergence; conditions: for Galium plant response rating: visual injury rating on 0 to 100 scale (0 no effect, 100 complete control), approx. 10 d
Procedure, shortened: as §1

Kochia (Kochia scoparia) [8] = assay: Test A postemergence; conditions: for Kochia plant response rating: visual injury rating on 0 to 100 scale (0 no effect, 100 complete control), approx. 10 d
Procedure, shortened: as §1

[9] = tested on: barnyardgrass (Echinochloa crus-galli); assay: Test A postemergence; conditions: for Barnyardgrass plant response rating: visual injury rating on 0 to 100 scale (0 no effect, 100 complete control), approx. 10 d
Procedure, shortened: as §1

[10] = tested on: blackgrass (Alopecurus myosuroides); assay: Test A postemergence; conditions: for Blackgrass plant response rating: visual injury rating on 0 to 100 scale (0 no effect, 100 complete control), approx. 10 d
Procedure, shortened: as §1

corn (Zea mays) = assay: Test A postemergence; conditions: for Corn plant response rating: visual injury rating on 0 to 100 scale (0 no effect, 100 complete control), approx. 10 d
Procedure, shortened: as §1

[11] = tested on: giant foxtail (Setaria faberii); assay: Test A postemergence; conditions: for Foxtail, Giant plant response rating: visual injury rating on 0 to 100 scale (0 no effect, 100 complete control), approx. 10 d
Procedure, shortened: as §1

[12] = tested on: pigweed (Amaranthus retroflexus); assay: Test A postemergence; conditions: for Pigweed plant response rating: visual injury rating on 0 to 100 scale (0 no effect, 100 complete control), approx. 10 d
Procedure, shortened: as §1

[13] = tested on: ragweed (common ragweed, Ambrosia elatior); assay: Test A postemergence; conditions: for Ragweed plant response rating: visual injury rating on 0 to 100 scale (0 no effect, 100 complete control), approx. 10 d
Procedure, shortened: as §1

[14] = tested on: ryegrass, Italian (Italian ryegrass, Lolium multiflorum); assay: Test A postemergence; conditions: for Ryegrass, Italian plant response rating: visual injury rating on 0 to 100 scale (0 no effect, 100 complete control), approx. 10 d
Procedure, shortened: as §1

[15] = tested on: wheat (Triticum aestivum); assay: Test A postemergence; conditions: for Wheat plant response rating: visual injury rating on 0 to 100 scale (0 no effect, 100 complete control), approx. 10 d
Procedure, shortened: as §1

[16] = tested on: barnyardgrass (Echinochloa crus-galli); assay: Test B flooded paddy test; conditions: Flood, 250 g ai/ha; 0 to 100 scale where 0 is no effect and 100 is complete control; 13 to 15 d
Procedure, shortened: (§2)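 Response scored visually against untreated controls, 0 = no effect and 100 = complete control, 13–15 d after treatment in the greenhouse. Compounds added to paddy water held 3 cm above soil surface. Treatment given at 2-leaf stage.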

[17] = tested on: ducksalad (Heteranthera limosa); assay: Test B flooded paddy test; conditions: Flood, 250 g ai/ha; 0 to 100 scale where 0 is no effect and 100 is complete control; 13 to 15 d
Procedure, shortened: as §2

rice (Oryra sativa) = assay: Test B flooded paddy test; conditions: Flood, 250 g ai/ha; 0 to 100 scale where 0 is no effect and 100 is complete control; 13 to 15 d
Procedure, shortened: as §2

[18] = tested on: sedge, umbrella (small-flower umbrella sedge, Cyperus difformis); assay: Test B flooded paddy test; conditions: Flood, 250 g ai/ha; 0 to 100 scale where 0 is no effect and 100 is complete control; 13 to 15 d
Procedure, shortened: as §2

[19] = Postemergence, 500 g ai/ha, 0 to 100 scale where 0 is no effect and 100 is complete control
[20] = 125 g ai/ha, postemergence, visual rating after approx. 10 d, 0 to 100 scale (0 no effect, 100 complete control)

| Compound | Plant response rating, Kochia (Kochia (Kochia scoparia) [1]) | Kochia plant response rating (0 to 100 scale, 0 is no effect, 100 is complete control) (Kochia (Kochia scoparia) [1]) | Plant response rating, Barnyardgrass [2] | Barnyardgrass plant response rating (0 to 100 scale, 0 is no effect, 100 is complete control) [2] | Plant response rating, Foxtail, Giant [3] | Foxtail, Giant plant response rating (0 to 100 scale, 0 is no effect, 100 is complete control) [3] | Plant response rating, Pigweed [4] | Plant response rating, Ragweed [5] | Ragweed plant response rating (0 to 100 scale, 0 is no effect, 100 is complete control) [5] | Plant response rating, Ryegrass, Italian [6] | Ryegrass, Italian plant response rating (0 to 100 scale, 0 is no effect, 100 is complete control) [6] | Plant response rating, Galium [7, 19] | Plant response rating, Kochia (Kochia (Kochia scoparia) [8]; [19]) | Plant response rating, Barnyardgrass [9, 19] | Plant response rating, Blackgrass [10, 19] | Plant response rating, Corn (corn (Zea mays); [19]) | Plant response rating, Foxtail, Giant [11, 19] | Plant response rating, Pigweed [12, 19] | Plant response rating, Ragweed [13, 19] | Plant response rating, Ryegrass, Italian [14, 19] | other results |
| --- | --- | --- | --- | --- | --- | --- | --- | --- | --- | --- | --- | --- | --- | --- | --- | --- | --- | --- | --- | --- | --- |
| COc1ccc(N2CC(c3cccc(C(F)(F)F)c3)C(C(=O)Nc3ccccc3F)C2=O)cc1 (centres unmarked) [Compound 505] | 0 | 0 | 0 | 0 | 0 | 0 | 0 | 0 | 0 | 0 | 0 | 0 | 0 | 0 | 0 | 0 | 0 | 10 | 0 | 0 | Pigweed plant response rating (0 to 100 scale, 0 is no effect, 100 is complete control) [4]: 0; Galium plant response rating ([7]; 125 g ai/ha, postemergence): 0; Kochia plant response rating (Kochia (Kochia scoparia) [8]; 125 g ai/ha, postemergence): 0; Barnyardgrass plant response rating ([9]; 125 g ai/ha, postemergence): 0; Blackgrass plant response rating ([10]; 125 g ai/ha, postemergence): 0; Corn plant response rating (corn (Zea mays); 125 g ai/ha, postemergence): 0; Foxtail, Giant plant response rating ([11]; 125 g ai/ha, postemergence): 0; Pigweed plant response rating ([12]; 125 g ai/ha, postemergence): 0; Ragweed plant response rating ([13]; 125 g ai/ha, postemergence): 0; Ryegrass, Italian plant response rating ([14]; 125 g ai/ha, postemergence): 0; Wheat plant response rating ([15]; 125 g ai/ha, postemergence): 0; Plant response rating, Wheat [15, 19]: 0; Plant response rating, Barnyardgrass [16]: 0; Plant response rating, Ducksalad [17]: 0; Plant response rating, Rice (rice (Oryra sativa)): 0; Plant response rating, Sedge, Umbrella [18]: 0 |
| CN1CC(c2cccc(Br)c2)C(C(=O)Nc2cccc(F)c2F)C1=O (centres unmarked) [Compound 520] | 50 | 70 | 90 | 90 | 90 | 90 | 30 | 0 | 50 | 30 | 50 | 60 | 70 | 90 | 70 | 70 | 80 | 50 | 30 | 80 | Pigweed plant response rating (0 to 100 scale, 0 is no effect, 100 is complete control) [4]: 80; Galium plant response rating ([7]; 125 g ai/ha, postemergence): 60; Kochia plant response rating (Kochia (Kochia scoparia) [8]; 125 g ai/ha, postemergence): 60; Barnyardgrass plant response rating ([9]; 125 g ai/ha, postemergence): 90; Blackgrass plant response rating ([10]; 125 g ai/ha, postemergence): 70; Corn plant response rating (corn (Zea mays); 125 g ai/ha, postemergence): 60; Foxtail, Giant plant response rating ([11]; 125 g ai/ha, postemergence): 80; Pigweed plant response rating ([12]; 125 g ai/ha, postemergence): 40; Ragweed plant response rating ([13]; 125 g ai/ha, postemergence): 30; Ryegrass, Italian plant response rating ([14]; 125 g ai/ha, postemergence): 40; Wheat plant response rating ([15]; 125 g ai/ha, postemergence): 50; Plant response rating, Wheat [15, 19]: 70; Plant response rating, Barnyardgrass [16]: 65; Plant response rating, Ducksalad [17]: 100; Plant response rating, Rice (rice (Oryra sativa)): 0; Plant response rating, Sedge, Umbrella [18]: 0 |
| O=C1NCC(c2cc(C(F)(F)F)cc(C(F)(F)F)c2)C1C(=O)Nc1ccccc1F (centres unmarked) [Compound 587] | 0 | 0 | 90 | 90 | 90 | 90 | 0 | 0 | 0 | 20 | 60 | 0 | 20 | 90 | 60 | 70 | 90 | 0 | 0 | 30 | Plant response rating, Galium [7, 20]: 0; Plant response rating, Kochia (Kochia (Kochia scoparia) [8]; [20]): 0; Plant response rating, Barnyardgrass [9, 20]: 80; Plant response rating, Blackgrass [10, 20]: 20; Plant response rating, Corn (corn (Zea mays); [20]): 40; Plant response rating, Foxtail, Giant [11, 20]: 80; Plant response rating, Pigweed [12, 20]: 0; Plant response rating, Ragweed [13, 20]: 0; Plant response rating, Ryegrass, Italian [14, 20]: 0; Plant response rating, Wheat [15, 20]: 40; Plant response rating, Wheat [15, 19]: 60; Plant response rating, Barnyardgrass [16]: 55; Plant response rating, Ducksalad [17]: 75; Plant response rating, Rice (rice (Oryra sativa)): 20; Plant response rating, Sedge, Umbrella [18]: 0 |
